Reference: patent US10203331B2, “Single cell drug response measurements via live cell interferometry” (The Regents of the University of California, priority 2011, dated 2019)
“Also recorded” adds a separate entry of the source.

Columns and labels:
Type in all cases: cell-based, human
[1] = test system: XBP1 mRNA splicing (XBP1-s); assay: RT-PCR for XBP1 spliced and unspliced isoforms in treated H929 cells; conditions: treated H929 population, over five hours
Method: (§1) H929 cells were seeded in 6-well culture plates at a density of 1×10^6 cells/well. Before plating cells in the LCI's observation chamber, either 1 μL of Tunicamycin (T7765; Sigma-Aldrich) in DMSO, or DMSO alone were added to the media at a concentration of 10 mg/ml, DMSO/media (1:1000 dilution). Mass measurements commenced one hour after the cells were plated in the observation chamber in order to allow the experimental system to stabilize, i.e.; culture acclimation, temperature stabilization, etc. For cell cycle analysis, cells from each time point were collected and incubated with a hypotonic DNA-staining buffer containing propidium iodide and later analyzed by flow cytometry. RNA for each time point was extracted using the Trizol reagent (Invitrogen).
(§2) CDNA was synthesized from 3 μg of total RNA with oligo(dT) primers using the Superscript III first strand cDNA synthesis kit (Invitrogen). RT-PCR for XBP1 spliced and unspliced isoforms were performed using Platinum Taq (Invitrogen) at an annealing temperature of 58° C. for 25 cycles. Quantitative RT-PCR for CHOP (DDIT3) mRNA was performed using the SYBR green real time PCR kit (Diagenode) and an Applied Biosystems (Foster City, Calif., USA) 7700 sequence detector as described (33). Samples were analyzed for 36b4 expression as a normalization control. Primer sequences are available on request.

[2] = test system: H929 cells; assay: Cell cycle analysis, propidium iodide flow cytometry
Method: as §1

[3] = test system: H929 multiple myeloma cells; assay: LCI longitudinal single-cell mass accumulation profiling; set-up: mass accumulation rate (growth) of treated cells versus DMSO-treated controls: dose or concentration left out as unconfirmed; conditions: for mass accumulation rate (growth) of treated cells versus DMSO-treated controls: Tunicamycin, data over five hours
Description: The live cell interferometer has been described in detail previously (1). Briefly, the system is an optical microscope, based on a modified Veeco NT9300 optical profiler, with a 20×0.28NA Michelson interference objective that allows for the observation of not only lateral features with typical optical resolution (1.16 μm for the 20× objective) but also height dimensions of reflective objects below the scale of one nanometer. The Michelson interferometer is composed of a beam splitter, reference mirror and compensating fluid cell to adjust for optical path differences induced by fluid surrounding the specimen. The phase shifting interferometry (PSI) (14) method was used to capture phase images of the cell bodies in situ. During measurement, a piezoelectric translator decreases the light path a small amount causing a phase shift between the test and reference beams. The system records the irradiance of the resulting interference pattern at many different phase shifts and then converts the irradiance to phase wavefront data by integrating the irradiance data using a PSI algorithm. As currently implemented, the autofocus and PSI measurement cycle takes 12 seconds. The PSI measurement itself takes 1-2 seconds, and is limited by the camera frame rate (60 fps). In this experiment, one set of 25 images, containing 400-1,000 cells, was captured every 7 minutes. Each set of 25 images contained hundreds of cells, with data from the first five images presented here, and therefore each run includes ˜80 cells. All cells within each of the selected images were measured.
The software native to the Veeco NT9300 allows automated optical thickness measurements of cells selected manually from the phase image. The optical thickness is converted to mass as described in the text, using the conversion constant, α=1.8×10^−3 m^3 kg^−1, consistent with Ross. (9) The boundary of each cell was automatically selected by an algorithm that partitions objects from the background using a threshold determined from the histogram of pixel heights. (15) Conversion of the raw phase image into optical thickness uses a series of well established ‘phase unwrapping’ routines. […] This error is easily detected as a non-physical discontinuity in optical thickness, and corrected by adding back one wavelength of optical thickness to the affected pixels. […]
H929 human multiple myeloma cells were maintained at 37° C. in 5% CO2 in RPMI 1640 growth media supplemented with 10% defined fetal bovine serum (HyClone) and antibiotics. […] Cell responses to external stimuli were measured for as long as seven hours in this configuration, and observed unperturbed cultures for up to twelve hours, although the upper limit of experiment duration has not been determined. […]

[4] = test system: CHOP (DDIT3) mRNA; assay: Quantitative RT-PCR for CHOP (DDIT3) mRNA in treated H929 cells; conditions: treated H929 population, over five hours
Method: as §1, §2

In the case of Tunicamycin, the “XBP1 alternative splicing (spliced form XBP1-s)” value [1] is reported as “alternative splicing”, the “XBP1 alternative splicing (spliced form XBP1-s)” value ([1]; listed as TM) is reported as “up-regulation” and the “cells in G1/G0” value ([2]; by the end of five hours of treatment) is reported as 50%. The G2/M phase population ([2]; shift pronounced after three hours of exposure) was “rapid reduction”, the “time at which suppression of growth of the treated population appears” value ([3]; H929, treated vs untreated) was “within two hours” and the “mass accumulation rate (growth) of treated cells versus DMSO-treated controls” value [3] was “grow more slowly than do the controls; also recorded: much lower”. For the same substance, the “mass accumulation rate (growth) of treated cells versus DMSO-treated controls” value ([3]; listed as TM) was “slowing mass accumulation”, the “cell shrinkage or apoptosis” value ([3]; with induction of XBP1 mRNA splicing) was “not cell shrinkage or apoptosis” and the “CHOP transcription factor expression” value [4] was “up-regulation”.
